According to the supplement of paper PMC9780213:

Legend:
Details in all cases: treatment time: 24 h
U2OS-LMNB1-TUBA1B-ACTB = assay: cell count relative to DMSO control (panel C1, DRAQ5/ER stain) (fraction of control); higher = more cells (less toxicity)
Procedure: (§1)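 U2OS-derived cells in 384-well plates were treated for 24 h with a 7-point 2-fold dilution series (top dose 20 µM for most compounds; final max DMSO 1%), then fixed, stained in four marker panels and imaged on a Cellomics ArrayScan. Cell count per treatment (three replicate plates merged) is given as a fraction of DMSO control. Panel A used parental U2OS, panel B U2OS-mOrange2-Peroxisome, panel C1 U2OS-LMNB1-TUBA1B-ACTB (DRAQ5 nuclei).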

U2OS-mOrange2-Peroxisome = assay: cell count relative to DMSO control (panel B, lysosome/peroxisome/lipid stain) (fraction of control); higher = more cells (less toxicity)
Procedure: as §1

U2OS = assay: cell count relative to DMSO control (panel A, nuclei/RNA/PMG/mitochondria stain) (fraction of control); higher = more cells (less toxicity)
Procedure: as §1

N#C[C@H](O[C@@H]1O[C@H](CO[C@@H]2O[C@H](CO)[C@@H](O)[C@H](O)[C@H]2O)[C@@H](O)[C@H](O)[C@H]1O)c1ccccc1 [amygdalin]
cell count
Details | 0.3125 µM | 0.625 µM | 1.25 µM | 2.5 µM | 5 µM | 10 µM | 20 µM
U2OS | 1.09 | 1.06 | 1.07 | 1.02 | 0.921 | 1.05 | 0.974
U2OS-LMNB1-TUBA1B-ACTB | 1.05 | 1.15 | 0.992 | 1.01 | 0.959 | 1.1 | 0.956
U2OS-mOrange2-Peroxisome | 0.877 | 0.848 | 0.731 | 0.983 | 0.805 | 0.948 | 0.953

CC(NC(=O)c1ccccc1/N=C/c1c(O)ccc2ccccc12)c1ccccc1 (stereo unspecified) [sirtinol]
cell count
Details | 0.3125 µM | 0.625 µM | 1.25 µM | 2.5 µM | 5 µM | 10 µM | 20 µM
U2OS | 0.858 | 0.782 | 0.659 | 0.462 | 0.195 | 0.192 | 0.17
U2OS-LMNB1-TUBA1B-ACTB | 0.886 | 0.842 | 0.727 | 0.552 | 0.338 | 0.357 | 0.367
U2OS-mOrange2-Peroxisome | 0.607 | 0.507 | 0.491 | 0.365 | 0.37 | 0.373 | 0.339

NS(=O)(=O)C#Cc1ccccc1 [pifithrin-mu]
cell count
Details | 0.15625 µM | 0.3125 µM | 0.625 µM | 1.25 µM | 2.5 µM | 5 µM | 10 µM
U2OS | 1.06 | 1.07 | 1.11 | 1.05 | 0.983 | 0.953 | 1.05
U2OS-LMNB1-TUBA1B-ACTB | 1.14 | 1.09 | 1.06 | 1.08 | 1.07 | 1.1 | 0.97
U2OS-mOrange2-Peroxisome | 1.01 | 1.02 | 0.981 | 0.941 | 1.08 | 1.02 | 1.13

COC(=O)Nc1nc2ccc(C(=O)c3cccs3)cc2[nH]1 [nocodazole]
cell count
Details | 0.3125 µM | 0.625 µM | 1.25 µM | 2.5 µM | 5 µM | 10 µM | 20 µM
U2OS | 1.06 | 0.962 | 1.03 | 0.792 | 0.692 | 0.317 | 0.196
U2OS-LMNB1-TUBA1B-ACTB | 1.12 | 0.993 | 1.01 | 0.999 | 0.737 | 0.414 | 0.369
U2OS-mOrange2-Peroxisome | 0.837 | 0.656 | 0.775 | 0.628 | 0.411 | 0.425 | 0.381

COc1ccc2cc1Oc1ccc(cc1)C[C@H]1c3cc(c(OC)cc3CCN1C)Oc1c(OC)c(OC)cc3c1[C@H](C2)N(C)CC3 [tetrandrine]
cell count
Details | 0.3125 µM | 0.625 µM | 1.25 µM | 2.5 µM | 5 µM | 10 µM | 20 µM
U2OS | 0.949 | 1 | 1.01 | 0.97 | 0.905 | 0.781 | 0.631
U2OS-LMNB1-TUBA1B-ACTB | 1.04 | 1.06 | 1.06 | 1.05 | 0.976 | 0.796 | 0.639
U2OS-mOrange2-Peroxisome | 0.838 | 0.86 | 0.958 | 0.976 | 0.895 | 0.827 | 0.488

OC(CS)C(O)CS (stereo unspecified) [DTT]
cell count
Details | 0.3125 µM | 0.625 µM | 1.25 µM | 2.5 µM | 5 µM | 10 µM | 20 µM
U2OS | 0.863 | 0.785 | 0.733 | 0.765 | 0.729 | 0.201 | 0.11
U2OS-LMNB1-TUBA1B-ACTB | 0.887 | 0.811 | 0.809 | 0.764 | 0.806 | 0.477 | 0.457
U2OS-mOrange2-Peroxisome | 0.732 | 0.714 | 0.826 | 0.911 | 0.773 | 0.0574 | 0.0584

O=c1[nH]c(=O)n([C@H]2C[C@H](O)[C@@H](CO)O2)cc1F [floxuridine]
cell count
Details | 0.3125 µM | 0.625 µM | 1.25 µM | 2.5 µM | 5 µM | 10 µM | 20 µM
U2OS | 0.806 | 0.815 | 0.744 | 0.681 | 0.609 | 0.58 | 0.558
U2OS-LMNB1-TUBA1B-ACTB | 1.06 | 1 | 0.979 | 0.737 | 0.792 | 0.929 | 0.892
U2OS-mOrange2-Peroxisome | 1.52 | 1.54 | 1.34 | 1.14 | 1.11 | 0.829 | 1.31

Nc1c2ccccc2nc2ccccc12 [9-aminoacridine]
cell count
Details | 0.3125 µM | 0.625 µM | 1.25 µM | 2.5 µM | 5 µM | 10 µM | 20 µM
U2OS | 1.08 | 1.12 | 1 | 0.751 | 0.383 | 0.226 | 0.254
U2OS-LMNB1-TUBA1B-ACTB | 1.11 | 1.05 | 1.12 | 0.826 | 0.239 | 0.0589 | 0.0515
U2OS-mOrange2-Peroxisome | 1.12 | 0.733 | 0.6 | 0.346 | 0.104 | 0.0699 | 0.0813

CCN(CC)CCCC(C)Nc1c2ccc(Cl)cc2nc2ccc(OC)cc12 (stereo unspecified) [mepacrine]
cell count
Details | 0.3125 µM | 0.625 µM | 1.25 µM | 2.5 µM | 5 µM | 10 µM | 20 µM
U2OS | 1.02 | 0.981 | 0.98 | 0.921 | 0.925 | 0.85 | 0.616
U2OS-LMNB1-TUBA1B-ACTB | 1.13 | 1.01 | 1.03 | 1.07 | 1.08 | 1.05 | 0.727
U2OS-mOrange2-Peroxisome | 0.781 | 0.889 | 0.854 | 0.763 | 0.778 | 0.733 | 0.449

O=C(CCCCCCC(=O)Nc1ccccc1)NO [vorinostat]
cell count
Details | 0.3125 µM | 0.625 µM | 1.25 µM | 2.5 µM | 5 µM | 10 µM | 20 µM
U2OS | 1.12 | 1.1 | 0.993 | 1.03 | 1.02 | 0.899 | 0.304
U2OS-LMNB1-TUBA1B-ACTB | 1.1 | 1.02 | 0.995 | 0.911 | 1.01 | 0.794 | 0.208
U2OS-mOrange2-Peroxisome | 0.929 | 1.04 | 0.893 | 1.13 | 0.926 | 0.812 | 0.292

CCCC[C@H]1C(=O)O[C@H](C)[C@H](NC(=O)c2cccc(NC=O)c2O)C(=O)O[C@@H](C)[C@@H]1OC(=O)CC(C)C [antimycin-a]
cell count
Details | 0.15625 µM | 0.3125 µM | 0.625 µM | 1.25 µM | 2.5 µM | 5 µM | 10 µM
U2OS | 1.04 | 1.02 | 0.799 | 0.644 | 0.587 | 0.497 | 0.507
U2OS-LMNB1-TUBA1B-ACTB | 1.01 | 1.05 | 0.943 | 0.716 | 0.66 | 0.626 | 0.54
U2OS-mOrange2-Peroxisome | 1.04 | 0.945 | 0.858 | 0.811 | 0.724 | 0.66 | 0.739

CC[C@H]1/C=C/C=C/C[C@@H](C)[C@H](O)[C@@](C)(O)C(=O)[C@@H](C)[C@H](O)[C@@H](C)C(=O)[C@@H](C)[C@H](O)[C@@H](C)/C=C/C(=O)O[C@@H]2[C@H](C)[C@H](CC1)O[C@]1(CC[C@H](C)[C@H](C[C@@H](C)O)O1)[C@H]2C [oligomycin-a]
cell count
Details | 0.15625 µM | 0.3125 µM | 0.625 µM | 1.25 µM | 2.5 µM | 5 µM | 10 µM
U2OS | 0.555 | 0.986 | 0.995 | 1.04 | 0.938 | 0.99 | 0.925
U2OS-LMNB1-TUBA1B-ACTB | 0.621 | 1.03 | 1.07 | 1 | 1.03 | 1.09 | 1.05
U2OS-mOrange2-Peroxisome | 0.52 | 0.906 | 0.944 | 0.895 | 0.858 | 1.21 | 1.09

C=C1[C@@H](C)[C@H]2[C@H](Cc3ccccc3)NC(=O)[C@]23[C@H](OC(C)=O)/C=C/[C@@](C)(O)C(=O)[C@@H](C)C/C=C/[C@H]3[C@@H]1O [cytochalasin-d]
cell count
Details | 0.000781 µM | 0.0015625 µM | 0.003125 µM | 0.00625 µM | 0.0125 µM | 0.025 µM | 0.05 µM
U2OS | 0.938 | 0.944 | 0.899 | 1 | 0.643 | 0.463 | 0.403
U2OS-LMNB1-TUBA1B-ACTB | 1.08 | 1.04 | 1.04 | 0.821 | 0.499 | 0.374 | 0.356
U2OS-mOrange2-Peroxisome | 0.993 | 1.12 | 1.29 | 1.24 | 0.826 | 0.656 | 0.602

C/C1=C/C(=O)O[C@@H]2C[C@@H](CC[C@H](C)/C=C\C=C\CC1)O[C@@](O)([C@@H]1CSC(=O)N1)C2 [latrunculin-a]
cell count
Details | 0.000781 µM | 0.0015625 µM | 0.003125 µM | 0.00625 µM | 0.0125 µM | 0.025 µM | 0.05 µM
U2OS | 0.372 | 0.438 | 0.369 | 0.312 | 0.278 | 0.194 | 0.121
U2OS-LMNB1-TUBA1B-ACTB | 0.337 | 0.521 | 0.464 | 0.461 | 0.379 | 0.304 | 0.196
U2OS-mOrange2-Peroxisome | 0.66 | 0.625 | 0.479 | 0.467 | 0.312 | 0.155 | 0.0636

CC[C@]1(O)C[C@H]2CN(CCc3c([nH]c4ccccc34)[C@@](C(=O)OC)(c3cc4c(cc3OC)N(C=O)[C@H]3[C@@](O)(C(=O)OC)[C@H](OC(C)=O)[C@]5(CC)C=CCN6CC[C@]43[C@@H]65)C2)C1 [vincristine]
cell count
Details | 0.3125 µM | 0.625 µM | 1.25 µM | 2.5 µM | 5 µM | 10 µM | 20 µM
U2OS | 0.508 | 0.506 | 0.522 | 0.496 | 0.465 | 0.486 | 0.456
U2OS-LMNB1-TUBA1B-ACTB | 0.617 | 0.651 | 0.606 | 0.557 | 0.576 | 0.58 | 0.59
U2OS-mOrange2-Peroxisome | 0.728 | 0.834 | 0.678 | 0.793 | 0.752 | 0.769 | 0.685

CNCCCN1c2ccccc2CCc2ccccc21 [desipramine]
cell count
Details | 0.3125 µM | 0.625 µM | 1.25 µM | 2.5 µM | 5 µM | 10 µM | 20 µM
U2OS | 0.822 | 0.55 | 0.489 | 0.481 | 0.379 | 0.243 | 0.189
U2OS-LMNB1-TUBA1B-ACTB | 0.972 | 0.817 | 0.772 | 0.652 | 0.595 | 0.32 | 0.333
U2OS-mOrange2-Peroxisome | 0.62 | 0.64 | 0.617 | 0.571 | 0.15 | 0.115 | 0.0511
